Here are results for 18 molecules from patent US8680159B2, “Bradykinin 1 receptor modulating compounds” (Gruenenthal GmbH, priority 2010, dated 2014).

In one assay the target is T1, B1R receptor of the rat (CHO K1 cells stably transfected with the B1R gene of the rat) (Rattus norvegicus, UniProt P97583).
T1 construct: expressed in transfected cells; host or cells: CHO K1 cells (Chinese hamster ovary), stably transfected
T1 sequence (P97583 1-337): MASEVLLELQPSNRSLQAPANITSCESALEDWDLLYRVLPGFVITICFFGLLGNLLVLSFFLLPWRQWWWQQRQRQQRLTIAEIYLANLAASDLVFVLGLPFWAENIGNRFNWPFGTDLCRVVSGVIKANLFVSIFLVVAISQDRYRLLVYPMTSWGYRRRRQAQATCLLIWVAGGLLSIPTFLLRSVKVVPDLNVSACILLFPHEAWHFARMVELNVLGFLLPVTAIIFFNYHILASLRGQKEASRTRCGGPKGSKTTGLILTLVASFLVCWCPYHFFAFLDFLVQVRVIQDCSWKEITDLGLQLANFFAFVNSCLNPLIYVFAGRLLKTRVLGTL
Kind of assay: Functional study on the bradykinin receptor 1 (B1R), Ca2+ fluorescence (Fluo-4) FLIPR/Novostar assay, rB1R cells. The note with it: CHO-K1, 10 μM, library compounds CC_H, read-out: % Inhibition (r-B1R) at 10 μM. In kind it is cell-based. As to the method: The agonistic or antagonistic action of substances can be quantified on the bradykinin receptor 1 (B1R) of the species human and rat using ectopically expressing cell lines (CHO K1 cells) and with the aid of a Ca^2+-sensitive dye (Fluo-4) using a fluorescent imaging plate reader (FLIPR). The indication in % activation is based on the Ca^2+ signal after addition of Lys-Des-Arg^9-bradykinin (0.5 nM) or Des-Arg^9-bradykinin (100 nM). Antagonists lead to suppression of the Ca^2+ influx after the addition of the agonist. % Inhibition compared with the maximum achievable inhibition is indicated.
The agonistic or antagonistic action of substances can be determined on the bradykinin receptor 1 (B1R) of the species human and rat using the following assay. According to this assay, the increase in intracellular Ca^2+ following administration of a B1R agonist is quantified with the aid of a Ca^2+-sensitive dye (Fluo-4 type, Molecular Probes Europe BV, Leiden, Netherlands) using a Fluorescent Imaging Plate Reader (FLIPR, Molecular Devices, Sunnyvale, USA) and/or using a Novostar (BMG Labtech GmbH, Offenburg, Germany).
Chinese hamster ovary cells (CHO K1 cells) which have been stably transfected with the human B1R gene (hB1R cells) or with the B1R gene of the rat (rB1R cells) are used. For functional studies, the cells are plated out on black 96-well plates having a clear base (BD Biosciences, Heidelberg, Germany or Greiner, Frickenhausen, Germany) in a density of 20,000-35,000 cells/well. The cells are left overnight at 37° C. and with 5% CO2 in culture medium (hB1R cells: Nutrient Mixture Ham's F12, Gibco Invitrogen GmbH, Karlsruhe, Germany or DMEM, Sigma-Aldrich, Taufkirchen, Germany; rB1R cells: D-MEM/F12, Gibco Invitrogen GmbH, Karlsruhe, Germany), with 10 vol. % FBS (fetal bovine serum, Gibco Invitrogen GmbH, Karlsruhe, Germany or PAN Biotech GmbH, Aidenbach, Germany). On the following day, the cells are loaded for 60 minutes at 37° C. with 2.13 μM Fluo-4 (Molecular Probes Europe BV, Leiden, Netherlands) in HBSS buffer (Hank's buffered saline solution, Gibco Invitrogen GmbH, Karlsruhe, Germany) […] (Sigma-Aldrich, Taufkirchen, Germany) and 10 mM HEPES (Sigma-Aldrich, Taufkirchen, Germany). The plates are then washed twice with HBSS buffer, and HBSS buffer additionally containing 0.1% BSA (bovine serum albumin; Sigma-Aldrich, Taufkirchen, Germany), 5.6 mM glucose and 0.05% gelatin (Merck KGaA, Darmstadt, Germany) is added to the plates. After incubation for a further 20 minutes at room temperature, the plates are inserted into the FLIPR or Novostar for Ca^2+ measurement. Alternatively, washing is carried out with buffer A (15 mM HEPES, 80 mM NaCl, 5 mM KCl, 1.2 mM CaCl2, 0.7 mM MgSO4, 2 g/l glucose, 2.5 mM probenecid) followed by loading with buffer A with added 2.5 μM Fluo-4 and 0.025% Pluronic F127 (Sigma-Aldrich, Taufkirchen, Germany). The cells are then washed twice with buffer A and incubated for 30 minutes at room temperature with buffer A additionally containing 0.05% BSA and 0.05% gelatin and are then inserted into the FLIPR or Novostar for Ca^2+ measurement. The Ca^2+-dependent fluorescence is measured before and after the addition of substances (λex=488 nm, λem=540 nm). Quantification is carried out by measuring the highest fluorescence intensity (FC, fluorescence counts) over time.
The FLIPR protocol consists of 2 substance additions, which are pipetted in the FLIPR. In the case of measurements using the Novostar, only the second substance addition is pipetted in the device. Both devices measure the fluorescence intensity over time. Test substances (10 μM) are first pipetted onto the cells and the intracellular Ca^2+ increase is compared with the control (hB1R: Lys-Des-Arg^9-bradykinin>=50 nM; rB1R: Des-Arg^9-bradykinin>=1 μM). This gives the % activation, based on the Ca^2+ signal after addition of Lys-Des-Arg^9-bradykinin (>=50 nM) or Des-Arg^9-bradykinin (>=1 μM). […]
Usually inhibition stands for the relative decrease from the control value, in per cent. As to `CN(C(=O)c1ccc2c(c1)C(NC(=O)c1ccccc1Cl)CC2)C1CCN(c2ccnnc2)CC1` (stereo not drawn) [CC_H-633, 3-[(2-Chloro-benzoyl)amino]-N-methyl-N-(1-pyridazin-4-yl-piperidin-4-yl)-2,3-dihydro-1H-indene-5-carboxylic acid amide], the inhibition at 10 µM was 103%.

The same assay, now with this note: CHO-K1, 10 μM, read-out: % Inhibition (r-B1R) at 10 μM.
As to `Cc1cc(N2CCC(N(C)C(=O)c3ccc4c(c3)C(NS(=O)(=O)Cc3ccccc3F)CC4)CC2)cc(C)n1` (stereo not drawn) [CC_H-323, N-[1-(2,6-Dimethyl-pyridin-4-yl)-piperidin-4-yl]-3-[[(2-fluorophenyl)-methylsulfonyl]amino]-N-methyl-2,3-dihydro-1H-indene-5-carboxylic acid amide], the inhibition at 10 µM is 110%.

In the case of `Cc1cc(N2CCC(N(C)C(=O)c3ccc4c(c3)C(NC(=O)Nc3ccc(F)c(Cl)c3)CC4)CC2)cc(C)n1` (stereo not drawn) [CC_H-314, 3-[[(3-Chloro-4-fluoro-phenyl)-carbamoyl]amino]-N-[1-(2,6-dimethyl-pyridin-4-yl)-piperidin-4-yl]-N-methyl-2,3-dihydro-1H-indene-5-carboxylic acid amide], the inhibition at 10 µM came to 81%.

Regarding `CN(C(=O)c1ccc2c(c1)C(NC(=O)Nc1cccc(Cl)c1)CCC2)C1CCN(c2ccncc2)CC1` (stereo not drawn) [CC_H-256, 8-[[(3-Chlorophenyl)-carbamoyl]amino]-N-methyl-N-(1-pyridin-4-yl-piperidin-4-yl)-5,6,7,8-tetrahydro-naphthalene-2-carboxylic acid amide], the inhibition at 10 µM was determined as 96%.

Turning to `COCC(=O)NC1CCCc2ccc(C(=O)N(C)C3CCN(c4ccncc4)CC3)cc21` (stereo not drawn) [CC_H-252, 8-[(2-Methoxy-acetyl)amino]-N-methyl-N-(1-pyridin-4-yl-piperidin-4-yl)-5,6,7,8-tetrahydro-naphthalene-2-carboxylic acid amide], the inhibition at 10 µM was 107%.

As to `Cc1cccc(Cl)c1S(=O)(=O)NC1CCOc2ccc(C(=O)N(C)C3CCN(c4ccncc4)CC3)cc21` (stereo not drawn) [CC_H-278, 4-[[(2-Chloro-6-methyl-phenyl)sulfonyl]amino]-N-methyl-N-(1-pyridin-4-yl-piperidin-4-yl)-3,4-dihydro-2H-chromene-6-carboxylic acid amide], the inhibition at 10 µM came to 103%.

As for `Cc1cc(N2CCC(N(C)C(=O)c3ccc4c(c3)C(NC(=O)N(C)c3ccc(Cl)cc3Cl)CC4)CC2)cc(C)n1` (stereo not drawn) [CC_H-317, 3-[[(2,4-Dichlorophenyl)-methyl-carbamoyl]amino]-N-[1-(2,6-dimethyl-pyridin-4-yl)-piperidin-4-yl]-N-methyl-2,3-dihydro-1H-indene-5-carboxylic acid amide], the inhibition at 10 µM stood at 110%.

Regarding `Cc1ccc(F)c(C(=O)NC2CCc3ccc(C(=O)N(C)C4CCN(c5ccncc5)CC4)cc32)c1Cl` (stereo not drawn) [CC_H-202, 3-[(2-Chloro-6-fluoro-3-methyl-benzoyl)amino]-N-methyl-N-(1-pyridin-4-yl-piperidin-4-yl)-2,3-dihydro-1H-indene-5-carboxylic acid amide], the inhibition at 10 µM is 111%.

Take `Cc1cc(N2CCC(N(C)C(=O)c3ccc4c(c3)C(N(C)C(=O)c3c(F)ccc(C)c3Cl)CC4)CC2)cc(C)n1` (stereo not drawn) [CC_H-327, 3-[(2-Chloro-6-fluoro-3-methyl-benzoyl)-methyl-amino]-N-[1-(2,6-dimethyl-pyridin-4-yl)-piperidin-4-yl]-N-methyl-2,3-dihydro-1H-indene-5-carboxylic acid amide]: the inhibition at 10 µM stood at 112%.

Consider `CCCC(=O)NC1CCc2ccc(C(=O)N(C)C3CCN(c4cc(C)nc(C)c4)CC3)cc21` (stereo not drawn) [CC_H-319, 3-(Butanoylamino)-N-[1-(2,6-dimethyl-pyridin-4-yl)-piperidin-4-yl]-N-methyl-2,3-dihydro-1H-indene-5-carboxylic acid amide], for which the inhibition at 10 µM was 106%.

As to `CN(C(=O)NC1CCCc2ccc(C(=O)N(C)C3CCN(c4ccncc4)CC3)cc21)c1ccc(Cl)cc1Cl` (stereo not drawn) [CC_H-269, 8-[[(2,4-Dichlorophenyl)-methyl-carbamoyl]amino]-N-methyl-N-(1-pyridin-4-yl-piperidin-4-yl)-5,6,7,8-tetrahydro-naphthalene-2-carboxylic acid amide], the inhibition at 10 µM was determined as 109%.

Turning to `CN(C(=O)c1ccc2c(c1)C(NC(=O)c1c(Cl)cccc1C(F)(F)F)CC2)C1CCN(c2ccncc2)CC1` (stereo not drawn) [CC_H-204, 3-[[2-Chloro-6-(trifluoromethyl)-benzoyl]amino]-N-methyl-N-(1-pyridin-4-yl-piperidin-4-yl)-2,3-dihydro-1H-indene-5-carboxylic acid amide], the inhibition at 10 µM is 110%.

In the case of `Cc1cccc(Cl)c1S(=O)(=O)NC1CC(C)(C)c2ccc(C(=O)N(C)C3CCN(c4ccncc4)CC3)cc21` (stereo not drawn) [CC_H-230, 3-[[(2-Chloro-6-methyl-phenyl)sulfonyl]amino]-N,1,1-trimethyl-N-(1-pyridin-4-yl-piperidin-4-yl)-2,3-dihydro-indene-5-carboxylic acid amide], the inhibition at 10 µM was 110%.

In the case of `CCCC(=O)N(C)C1CCc2ccc(C(=O)N(C)C3CCN(c4cc(C)nc(C)c4)CC3)cc21` (stereo not drawn) [CC_H-353, 3-(Butanoyl-methyl-amino)-N-[1-(2,6-dimethyl-pyridin-4-yl)-piperidin-4-yl]-N-methyl-2,3-dihydro-1H-indene-5-carboxylic acid amide], the inhibition at 10 µM turned out to be 84%.

Consider `Cc1ccc(F)c(C(=O)NC2CCc3ccc(C(=O)N(C)C4CCN(c5ccc6cnccc6c5)CC4)cc32)c1Cl` (stereo not drawn) [CC_H-358, 3-[(2-Chloro-6-fluoro-3-methyl-benzoyl)amino]-N-(1-isoquinolin-6-yl-piperidin-4-yl)-N-methyl-2,3-dihydro-1H-indene-5-carboxylic acid amide], for which the inhibition at 10 µM turned out to be 111%.

As to `CN(C(=O)c1ccc2c(c1)C(NS(=O)(=O)C1CCCCC1)CCC2)C1CCN(c2ccncc2)CC1` (stereo not drawn) [CC_H-270, 8-[(Cyclohexylsulfonyl)amino]-N-methyl-N-(1-pyridin-4-yl-piperidin-4-yl)-5,6,7,8-tetrahydro-naphthalene-2-carboxylic acid amide], the inhibition at 10 µM was determined as 110%.

Take `CCCS(=O)(=O)NC1CCc2ccc(C(=O)N(C)C3CCN(c4ccc5cnccc5c4)CC3)cc21` (stereo not drawn) [CC_H-378, N-(1-Isoquinolin-6-yl-piperidin-4-yl)-N-methyl-3-[(propylsulfonyl)amino]-2,3-dihydro-1H-indene-5-carboxylic acid amide]: the inhibition at 10 µM turned out to be 101%.

As to `CN(C(=O)c1ccc2c(c1)C(NC(=O)Nc1cccc(Cl)c1Cl)CC2(C)C)C1CCN(c2ccncc2)CC1` (stereo not drawn) [CC_H-235, 3-[[(2,3-Dichloro-phenyl)-carbamoyl]amino]-N,1,1-trimethyl-N-(1-pyridin-4-yl-piperidin-4-yl)-2,3-dihydro-indene-5-carboxylic acid amide], the inhibition at 10 µM is 65%.
